Laboratory results: patent US11590116B2 (THERAVANCE BIOPHARMA R&D IP, LLC, priority 2019, dated 2023)

Assays:
[1] = target: T1, recombinant human ALK5 (TGF-βR1) protein (Homo sapiens, UniProt P36897); assay: Biochemical ALK5 (TGF-βR1) assay to measure pKi (LANCE Ultra ULight kinase assay); conditions: apparent pKi from pIC50 by Cheng-Prusoff, read-out: ALK5 pKi (converted)
T1 construct: purchased Life Technologies PR9075A
T1 sequence (P36897 34-503): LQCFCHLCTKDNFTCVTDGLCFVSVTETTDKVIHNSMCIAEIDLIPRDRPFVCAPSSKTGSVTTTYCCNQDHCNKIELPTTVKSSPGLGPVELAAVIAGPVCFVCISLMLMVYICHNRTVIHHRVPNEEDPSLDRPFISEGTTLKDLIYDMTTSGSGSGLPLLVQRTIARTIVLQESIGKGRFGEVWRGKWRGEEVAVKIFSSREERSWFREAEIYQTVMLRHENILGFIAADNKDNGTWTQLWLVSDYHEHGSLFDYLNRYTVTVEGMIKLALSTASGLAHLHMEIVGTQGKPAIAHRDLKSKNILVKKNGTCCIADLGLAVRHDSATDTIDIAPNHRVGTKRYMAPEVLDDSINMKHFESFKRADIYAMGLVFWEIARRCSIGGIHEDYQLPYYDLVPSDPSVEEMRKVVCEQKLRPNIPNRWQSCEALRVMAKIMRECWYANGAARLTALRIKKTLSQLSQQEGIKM
In short: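 Compounds (10 μM to 25 pM) preincubated 60 minutes at room temperature with enzyme, then reaction run 60 minutes at 37° C with ATP added as 125 μM (5× final). Stopped with EDTA plus Eu-anti-phospho-Topoisomerase 2-alpha (Thr1342) antibody, TR-FRET read at 665 nm; pIC50 converted to pKi via Cheng-Prusoff.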

[2] = system: TGF-β-stimulated SMAD3 phosphorylation in BEAS-2B cells; assay: Cellular ALK5 potency assay, inhibition of TGF-β stimulated pSMAD3 formation in BEAS-2B cells; type: cell-based; conditions: Homo sapiens; inhibition of TGF-β stimulated pSMAD3 formation, BEAS-2B cells; read-out: BEAS2B pIC50 (converted)
In short: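 AlphaLISA pSMAD3 read-out, beads incubated overnight. Human BEAS-2B cells: 1 h compound preincubation (37 °C, 5% CO2), then 30 min TGF-β at 10 ng/mL final, immediate lysis. Values are pIC50 relative to stimulated, compound-free baseline.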

| Structure (SMILES) | Ki [1] | IC50 [2] |
| --- | --- | --- |
| Cc1cccc(-c2[nH]ncc2-c2ccc3ncc(C(=O)OCCN4CCN5CCCC5C4)cc3c2)n1 (centres unmarked) [Compound 1234, 2-(3,4,6,7,8,8a-hexahydro-1H-pyrrolo[1,2-a]pyrazin-2-yl)ethyl 6-[5-(6-methyl-2-pyridyl)-1H-pyrazol-4-yl]quinoline-3-carboxylate] | 0.0398 to 0.316 nM | 25.1 to 158 nM |
| Cc1cccc(-c2[nH]cnc2-c2ccc3ncc(-c4csc(C(=O)OCCNC5CNC5)c4)cc3c2)n1 [Compound 1235, 2-(azetidin-3-ylamino)ethyl 4-[6-[5-(6-methyl-2-pyridyl)-1H-imidazol-4-yl]-3-quinolyl]thiophene-2-carboxylate] | 0.0398 to 0.316 nM | 25.1 to 158 nM |
| Cc1cccc(-c2[nH]cnc2-c2ccc3ncc(-c4ncc(C(=O)OCC5CNC5)s4)cc3c2)n1 [Compound 1236, azetidin-3-ylmethyl 2-[6-[5-(6-methyl-2-pyridyl)-1H-imidazol-4-yl]-3-quinolyl]thiazole-5-carboxylate] | 0.0398 to 0.316 nM | 25.1 to 158 nM |
| Cc1cccc(-c2[nH]ncc2-c2ccc3nccc(C(=O)OC4CNC4)c3c2)n1 [Compound 1237, azetidin-3-yl 6-[5-(6-methyl-2-pyridyl)-1H-pyrazol-4-yl]quinoline-4-carboxylate] | 0.0398 to 0.316 nM | 25.1 to 158 nM |
| Cc1cccc(-c2[nH]ncc2-c2ccc3ncc(C(=O)OCCN4C[C@@H](C)N[C@@H](C)C4)cc3c2)n1 [Compound 1238, 2-[(3S,5R)-3,5-dimethylpiperazin-1-yl]ethyl 6-[5-(6-methyl-2-pyridyl)-1H-pyrazol-4-yl]quinoline-3-carboxylate] | 0.0398 to 0.316 nM | 25.1 to 158 nM |
| Cc1cccc(-c2[nH]ncc2-c2ccc3ncc(C(=O)OCCN4CCC[C@@H](N)C4)cc3c2)n1 [Compound 1241, 2-[(3R)-3-amino-1-piperidyl]ethyl 6-[5-(6-methyl-2-pyridyl)-1H-pyrazol-4-yl]quinoline-3-carboxylate] | 0.0398 to 0.316 nM | 25.1 to 158 nM |
| Cc1cccc(-c2[nH]cnc2-c2ccc3ncc(-c4csc(C(=O)OCCN5CCNCC5)c4)cc3c2)n1 [Compound 1242, 2-piperazin-1-ylethyl 4-[6-[5-(6-methyl-2-pyridyl)-1H-imidazol-4-yl]-3-quinolyl]thiophene-2-carboxylate] | < 0.0316 nM | 25.1 to 158 nM |
| Cc1cccc(-c2[nH]cnc2-c2ccc3ncc(-c4csc(C(=O)O[C@H]5C[C@@H](N)C5)c4)cc3c2)n1 [Compound 1243, (3-aminocyclobutyl) 4-[6-[5-(6-methyl-2-pyridyl)-1H-imidazol-4-yl]-3-quinolyl]thiophene-2-carboxylate] | < 0.0316 nM | 25.1 to 158 nM |
| Cc1cccc(-c2[nH]cnc2-c2ccc3ncc(-c4ccc(C(=O)OC[C@H]5CCCCN5)cn4)cc3c2)n1 [Compound 1244, [(2R)-2-piperidyl]methyl 6-[6-[5-(6-methyl-2-pyridyl)-1H-imidazol-4-yl]-3-quinolyl]pyridine-3-carboxylate] | 0.0398 to 0.316 nM | 25.1 to 158 nM |

Now from value to molecule, other results behind:

| Ki [1] | Structure (SMILES) | IC50 [2] |
| --- | --- | --- |
| 0.0398 to 0.316 nM | Cc1cccc(-c2[nH]cnc2-c2ccc3ncc(-c4nc(C(=O)OCCN5CC[C@@H](N)C5)cs4)cc3c2)n1 [Compound 1246, 2-[(3R)-3-aminopyrrolidin-1-yl]ethyl 2-[6-[5-(6-methyl-2-pyridyl)-1H-imidazol-4-yl]-3-quinolyl]thiazole-4-carboxylate] | 200 to 1260 nM |
| 0.398 to 3.16 nM | Cc1cccc(-c2[nH]cnc2-c2ccc3ncc(-c4csc(C(=O)OCCN5CCC[C@H](N)C5)c4)cc3c2)n1 [Compound 1250, 2-[(3S)-3-amino-1-piperidyl]ethyl 4-[6-[5-(6-methyl-2-pyridyl)-1H-imidazol-4-yl]-3-quinolyl]thiophene-2-carboxylate] | 25.1 to 158 nM |
| < 0.0316 nM | COc1nc(-c2ccc3ncc(C4=CCC5(CCNCC5)CC4)cc3c2)c(-c2cccc(C)n2)[nH]1 [Compound 1251, 9-[6-[2-methoxy-5-(6-methyl-2-pyridyl)-1H-imidazol-4-yl]-3-quinolyl]-3-azaspiro[5.5]undec-9-ene] | 25.1 to 158 nM |
| 0.0398 to 0.316 nM | Cc1cccc(-c2[nH]cnc2-c2ccc3ncc(-c4nc(C(=O)OCCN5CCC[C@@H](N)C5)cs4)cc3c2)n1 [Compound 1252, 2-[(3R)-3-amino-1-piperidyl]ethyl 2-[6-[5-(6-methyl-2-pyridyl)-1H-imidazol-4-yl]-3-quinolyl]thiazole-4-carboxylate] | 25.1 to 158 nM |
| < 0.0316 nM | Cc1cccc(-c2[nH]cnc2-c2ccc3ncc(-c4csc(C(=O)OC[C@H]5CCCNC5)c4)cc3c2)n1 [Compound 1253, [(3S)-3-piperidyl]methyl 4-[6-[5-(6-methyl-2-pyridyl)-1H-imidazol-4-yl]-3-quinolyl]thiophene-2-carboxylate] | 25.1 to 158 nM |
| < 0.0316 nM | Cc1cccc(-c2[nH]cnc2-c2ccc3ncc(-c4nc(C(=O)OCCNC5CNC5)cs4)cc3c2)n1 [Compound 1254, 2-(azetidin-3-ylamino)ethyl 2-[6-[5-(6-methyl-2-pyridyl)-1H-imidazol-4-yl]-3-quinolyl]thiazole-4-carboxylate] | 200 to 1260 nM |
| 0.0398 to 0.316 nM | Cc1cccc(-c2[nH]ncc2-c2ccc3ncc(C(=O)OCCC4CCNCC4)cc3c2)n1 [Compound 1255, 2-(4-piperidyl)ethyl 6-[5-(6-methyl-2-pyridyl)-1H-pyrazol-4-yl]quinoline-3-carboxylate] | 25.1 to 158 nM |
